Data reported in publication PMC9098912, “Molecular basis for inhibiting human glucose transporters by exofacial inhibitors” (Nature Communications, 2022).
Changes are numbered by the printed parent chain. Entries after “also recorded” stand apart in the source; their conditions may differ.

Assays:
GLUT3 S71A = target: T1, GLUT3 S71A (Homo sapiens, UniProt P11169, N43T/S71A); experiment: biochemical; type: binding
T1 construct: His10 (N); made in house; host or cells: Sf9 insect cells (baculovirus)
Procedure: (§1) All mutants were generated by standard PCR-based strategy.
(§2) Inhibitors with serial dilutions were mixed with indicated protein. […] MST analyses were conducted on a Monolith NT. […] The MST data was analyzed by Monolith NT.115.

GLUT3 N32A = target: T2, GLUT3 N32A (Homo sapiens, UniProt P11169, N32A/N43T); experiment: MST binding assay, GLUT3 variant; conditions: read-out: Kd of SA47
T2 construct: His10 (N); made in house; host or cells: Sf9 insect cells (baculovirus)
T2 sequence (P11169 1-496 N32A/N43T): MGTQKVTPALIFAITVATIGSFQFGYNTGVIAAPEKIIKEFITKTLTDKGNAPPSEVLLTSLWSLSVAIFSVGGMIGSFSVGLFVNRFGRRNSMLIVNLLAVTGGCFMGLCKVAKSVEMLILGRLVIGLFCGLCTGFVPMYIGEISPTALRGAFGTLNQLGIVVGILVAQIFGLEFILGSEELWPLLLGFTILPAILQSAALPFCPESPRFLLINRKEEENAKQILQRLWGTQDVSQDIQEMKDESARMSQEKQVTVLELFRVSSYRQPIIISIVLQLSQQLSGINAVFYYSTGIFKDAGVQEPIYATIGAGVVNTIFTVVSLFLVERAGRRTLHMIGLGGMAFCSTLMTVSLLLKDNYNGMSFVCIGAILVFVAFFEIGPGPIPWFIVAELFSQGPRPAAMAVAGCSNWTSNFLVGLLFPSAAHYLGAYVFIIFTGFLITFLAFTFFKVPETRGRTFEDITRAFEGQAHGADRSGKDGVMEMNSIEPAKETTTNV
Procedure: as §1, §2

GLUT3 F289A = target: T3, GLUT3 F289A (Homo sapiens, UniProt P11169, F289A/N43T); experiment: MST binding assay, GLUT3 variant; conditions: read-out: Kd of SA47
T3 construct: His10 (N); made in house; host or cells: Sf9 insect cells (baculovirus)
T3 sequence (P11169 1-496 N43T/F289A): T2 sequence (P11169 1-496 N32A/N43T) with A32N, F289A
Procedure: as §1, §2

GLUT3 W386A = target: T4, GLUT3 W386A (Homo sapiens, UniProt P11169, N43T/W386A); experiment: MST binding assay, GLUT3 variant; conditions: read-out: Kd of SA47
T4 construct: His10 (N); made in house; host or cells: Sf9 insect cells (baculovirus)
T4 sequence (P11169 1-496 N43T/W386A): T2 sequence (P11169 1-496 N32A/N43T) with A32N, W386A
Procedure: as §1, §2

GLUT3 F70A = GLUT3 F70A (Homo sapiens, UniProt P11169, F70A/N43T); experiment: biochemical
Procedure: The recombinant human glucose transporter GLUT1(N45T) and E. coli (strain O157:H7) D-xylose:proton symporter XylE were expressed and purified as described previously[17],[26]. […] In brief, the cDNA of human GLUT3 was cloned into a modified pFastBac vector (Invitrogen) fused with an N-terminal His10 tag. All mutants were generated by standard PCR-based strategy.
as §2

Water solubility = type: physicochemical; conditions: can only be applied up to 160 μM
WT GLUT3 = target: T5, WT GLUT3 (Homo sapiens, UniProt P11169, N43T); experiment: Microscale thermophoresis (MST) binding assay; design: Figure 1e middle: MST binding curve, Mean / Figure 1e right: MST binding curve, Mean / Figure 2c: MST binding curve, Mean: unit not given here; conditions: for Figure 2c: MST binding curve, Mean: GLUT3, log[SA47]
T5 construct: His10 (N); made in house; host or cells: Sf9 insect cells (baculovirus)
T5 sequence (P11169 1-496 N43T): T2 sequence (P11169 1-496 N32A/N43T) with A32N
Procedure: as §1, §2

T1 sequence (P11169 whole entry N43T/S71A): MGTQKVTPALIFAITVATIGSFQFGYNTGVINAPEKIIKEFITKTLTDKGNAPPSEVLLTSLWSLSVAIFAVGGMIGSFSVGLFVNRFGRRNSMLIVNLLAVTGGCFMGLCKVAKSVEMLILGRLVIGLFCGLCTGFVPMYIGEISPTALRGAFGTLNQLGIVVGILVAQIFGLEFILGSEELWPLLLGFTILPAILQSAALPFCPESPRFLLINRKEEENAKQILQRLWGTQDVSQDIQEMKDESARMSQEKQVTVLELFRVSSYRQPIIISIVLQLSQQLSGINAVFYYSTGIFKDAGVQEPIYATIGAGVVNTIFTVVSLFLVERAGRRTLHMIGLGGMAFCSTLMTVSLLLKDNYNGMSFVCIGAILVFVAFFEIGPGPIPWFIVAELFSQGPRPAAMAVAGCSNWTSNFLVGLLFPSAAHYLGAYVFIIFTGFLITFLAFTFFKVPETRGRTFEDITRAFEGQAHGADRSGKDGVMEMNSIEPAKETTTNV
Sequence of GLUT3 F70A (P11169 whole entry N43T/F70A, the tested form may be a part): as the sequence (P11169 whole entry N43T/S71A) above, with F70A, A71S counted along it

COC(=O)CCNCc1ccccc1-n1ncc2c(N3CCN(c4cc(F)ccc4OC)CC3)ncnc21 [SA47]
Kd (GLUT3 S71A): 1600 ± 400 nM | Affinity of SA47 with GLUT3 S71A (GLUT3 S71A; S71A versus WT): decreased the affinity; also recorded: reduced affinity | Kd (GLUT3 N32A): 941 ± 213 nM | Kd (GLUT3 F289A): 164 ± 67 nM | Kd (GLUT3 W386A): 30300 ± 10700 nM | Kd (GLUT3 F70A): 1500 ± 200 nM | Water solubility (Water solubility): limited | Figure 2c: MST binding curve, Mean (WT GLUT3; M -4.30103): 93.1623 | Figure 2c: MST binding curve, Mean (WT GLUT3; M -4.60206): 97.5688 | Figure 2c: MST binding curve, Mean (WT GLUT3; M -4.90309): 103.147 | Figure 2c: MST binding curve, Mean (WT GLUT3; M -5.20412): 93.0436 | Figure 2c: MST binding curve, Mean (WT GLUT3; M -5.50515): 92.2406 | Figure 2c: MST binding curve, Mean (WT GLUT3; M -5.80618): 84.0843 | Figure 2c: MST binding curve, Mean (WT GLUT3; M -6.10721): 63.9676 | Figure 2c: MST binding curve, Mean (WT GLUT3; M -6.40824): 36.3211 | Figure 2c: MST binding curve, Mean (WT GLUT3; M -7.0103): 13.9692 | Figure 2c: MST binding curve, Mean (WT GLUT3; M -7.31133): 8.298 | Figure 2c: MST binding curve, Mean (WT GLUT3; M -7.61236): 1.1474 | Figure 2c: MST binding curve, Mean (WT GLUT3; M -7.91339): 0.7084 | Figure 2c: MST binding curve, Mean (WT GLUT3; M -8.21442): 2.7164 | Figure 2c: MST binding curve, Mean (WT GLUT3; M -8.51545): 2.4811 | Figure 2c: MST binding curve, Mean (WT GLUT3; M -8.81648): 1.1039 | Kd (WT GLUT3; WT GLUT3): 317 ± 47.2 nM
